Measured values: patent publication US20250352611A1, “METHODS FOR TREATING CATARACTS USING POLYPEPTIDES” (REJUKON BIOPHARM INC., priority 2022, published 2025)

Experiments:
[1] = system: crystallin aggregation from cataract patients; assay: Dissolution of crystallin aggregation in lens lysates from cataract patients; parameters: species or system human
Method: 30-50 ml lens lysates after phacoemulsification was collected from cataract patients with different disease progressions. Lanosterol was used as a benchmark medicament (see, Zhao, Ling, et al. “Lanosterol reverses protein aggregation in cataracts.” Nature 523. 7562 (2015): 607-611). […] Moreover, the concentration of the polypeptides provided herein (e.g., RJK001) was as less as 1/100 of the concentration of Lanosterol required to achieve the same dissolving effect.
30-50 ml Phacoemulsification of eye lens was collected from cataract patients with different disease progression. Let Phacoemulsification pass the 3KD protein concentration tube, and centrifuge at 4000 g for 20 minutes. centrifuge at 14000 g for 5 minutes after repeating the previous step to get the concentrate. Concentrate phacoemulsification to 200-300 ul every lens. Add 8 ul phacoemulsification concentrate in the following groups: 1, 8 ul crystalline concentrate; 2, 8 ul 1 mM lanosterol; 3, 8 ul 1 mM short peptide RJK001; 4, 8 ul protein solubilization buffer. Use a 20 ul pipette tip to mix them well, then stand still at RT for 20 min.

γD-crystallin = target: T1, γD-crystallin (Homo sapiens, UniProt P07320); assay: 1H-15N HSQC NMR of γD-crystallin with peptide; assay type: binding; parameters: interaction with γD-crystallin from chemical shift difference (CSD): dose or concentration left out as unconfirmed
T1 construct: Wild-type human full-length γD-crystallin gene were inserted into pET14b vectors; made in house; host or cells: E. coli BL21 (DE3)
T1 sequence (P07320 1-174): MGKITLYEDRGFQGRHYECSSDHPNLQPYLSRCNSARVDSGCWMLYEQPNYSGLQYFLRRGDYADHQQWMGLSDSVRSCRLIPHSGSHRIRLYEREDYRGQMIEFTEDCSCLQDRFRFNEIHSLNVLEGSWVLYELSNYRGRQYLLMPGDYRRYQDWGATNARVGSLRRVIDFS
Method: To evaluate whether a protein undergoes small or significant structural changes before and after adding polypeptides, ^1H-^15N HSQC spectroscopy is a useful tool and can be used as a “fingerprint” of the three-dimensional structure. […] Wild-type human full-length γD-crystallin gene were inserted into pET14b vectors. E. coli BL21 (DE3) cells were transformed with these vectors. For protein production, cells were grown at 37° C. to an absorbance at 600 nm of 0.6 and induced by the addition of 0.5 mM IPTG at 37° C. for 4 h. For the N15 labeling of the protein, the transformed E. coli BL21(DE3) cells were cultured and induced in M9 medium with NH4Cl as the only nitrogen source. […] Using final 300 uM human γD-crystallin at 25° C., the two-dimensional [^1H-^15N] heteronuclear single quantum coherence (HSQC) spectra were recorded to determine the domain interactions at the residue-specific level.
Chemical shift difference (CSD) was measured for γD-crystallin alone or with Champ-E(RJK001). […]
HSQC spectrums were acquired and analysis with ccpNMR, amide ^1H-^15N combined chemical shift differences were calculated using the equation Δδ=[(0.125ΔδN)^2+ΔδH^2]^1/2. […]
The N15 labeled protein was mix with the unlabeled peptide with the ratio of 1:0, 1:2. […] Amide ^1H-^15N combined chemical shift differences were calculated using the equation Δδ) [(0.125ΔδN)^2+ΔδH^2]. Intensity changes were calculated by I/I0. […]

1H-15N HSQC spectra of γD-crystallin prior to and after peptide incubation (γD-crystallin; 300 uM 15N γD-crystallin, molar ratio 1:2, 25° C.): significant chemical shifts
Sequence: TEPQEESEEEVEEPEERQQTPEVVPDDSGTFYDQTVSNDLE [RJK001, polypeptide with hydrophilic and hydrophobic segment, expressed in E. coli]
dissolving crystallin aggregation in lens lysates ([1]; lens lysates after phacoemulsification, RT 20 min): could effectively dissolve the crystallin aggregation from cataract patients | concentration relative to the concentration of Lanosterol required to achieve the same dissolving effect ([1]; lens lysates from cataract patients, Lanosterol as benchmark): 1/100 | interaction with γD-crystallin from chemical shift difference (CSD) (γD-crystallin; molar ratio γD-crystallin:RJK001 1:2): interacted with the full-length wildtype γD-crystallin protein
